Tests used:
[1] = molecular target: T1, PI3Kα (p110α/p85α) (Homo sapiens, UniProt P42336); assay: PI3Kα ADP-Glo assay; type: biochemical; conditions: 20 μM PIP2, 10 μM ATP, 30 minutes
T1 construct: GST (N); made in house; host or cells: Baculovirus-infected Sf9 cells
Summary of the method: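 Recombinant full-length human GST-p110α/His-p85α, co-expressed in Sf9 cells, was incubated 30 min at room temperature with 20 μM PIP2 and 10 μM ATP. The buffer was 50 mM HEPES pH 7.4, 150 mM NaCl, 5 mM MgCl2, 1 mM DTT, 3 µM orthovanadate and 0.5% DMSO. ADP formed was detected by ADP-Glo luminescence.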

[2] = tested on: HDACs (HeLa cell nuclear extracts); assay: HDAC enzymatic activity, Biomol Color de Lys system; type: biochemical; conditions: 1 hour, 25° C.
Summary of the method: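 HeLa nuclear extract incubated with serially diluted compound and […] artificial substrate in 50 mM Tris/Cl pH 8.0, 137 mM NaCl, 2.7 mM KCl, 1 mM MgCl2. Run 1 h at 25 °C, stopped with developer. Fluorescence read (ex 350-380, em 440-460 nm); IC50 from sigmoidal dose-response fit.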

T1 sequence (P42336 whole entry): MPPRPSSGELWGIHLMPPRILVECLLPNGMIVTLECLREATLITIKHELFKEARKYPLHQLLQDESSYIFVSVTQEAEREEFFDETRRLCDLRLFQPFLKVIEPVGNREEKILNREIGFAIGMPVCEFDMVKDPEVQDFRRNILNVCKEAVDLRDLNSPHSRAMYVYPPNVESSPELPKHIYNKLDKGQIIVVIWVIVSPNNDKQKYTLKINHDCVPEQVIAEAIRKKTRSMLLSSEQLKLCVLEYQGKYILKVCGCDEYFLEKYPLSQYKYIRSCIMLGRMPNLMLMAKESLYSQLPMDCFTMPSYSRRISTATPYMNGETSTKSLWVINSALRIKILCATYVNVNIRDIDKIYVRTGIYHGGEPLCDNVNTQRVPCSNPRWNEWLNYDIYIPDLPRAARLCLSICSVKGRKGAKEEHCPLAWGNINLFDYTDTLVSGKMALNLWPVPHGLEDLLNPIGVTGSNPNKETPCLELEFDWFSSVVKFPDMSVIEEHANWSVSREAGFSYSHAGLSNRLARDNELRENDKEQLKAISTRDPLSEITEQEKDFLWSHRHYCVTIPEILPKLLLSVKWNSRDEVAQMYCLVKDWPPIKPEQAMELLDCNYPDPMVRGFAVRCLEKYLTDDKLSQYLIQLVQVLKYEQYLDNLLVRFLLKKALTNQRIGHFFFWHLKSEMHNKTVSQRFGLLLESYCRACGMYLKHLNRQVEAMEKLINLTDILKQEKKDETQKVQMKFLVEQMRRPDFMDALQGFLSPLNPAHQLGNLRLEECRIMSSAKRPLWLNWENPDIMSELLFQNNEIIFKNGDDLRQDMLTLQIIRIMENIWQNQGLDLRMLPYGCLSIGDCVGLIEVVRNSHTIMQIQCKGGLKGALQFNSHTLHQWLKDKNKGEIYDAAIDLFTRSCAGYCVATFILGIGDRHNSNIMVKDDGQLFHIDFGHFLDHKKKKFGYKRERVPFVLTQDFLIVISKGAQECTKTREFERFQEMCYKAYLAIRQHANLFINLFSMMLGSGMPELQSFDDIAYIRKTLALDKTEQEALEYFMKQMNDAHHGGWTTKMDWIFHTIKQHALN
T1 sequence (P27986 whole entry partner): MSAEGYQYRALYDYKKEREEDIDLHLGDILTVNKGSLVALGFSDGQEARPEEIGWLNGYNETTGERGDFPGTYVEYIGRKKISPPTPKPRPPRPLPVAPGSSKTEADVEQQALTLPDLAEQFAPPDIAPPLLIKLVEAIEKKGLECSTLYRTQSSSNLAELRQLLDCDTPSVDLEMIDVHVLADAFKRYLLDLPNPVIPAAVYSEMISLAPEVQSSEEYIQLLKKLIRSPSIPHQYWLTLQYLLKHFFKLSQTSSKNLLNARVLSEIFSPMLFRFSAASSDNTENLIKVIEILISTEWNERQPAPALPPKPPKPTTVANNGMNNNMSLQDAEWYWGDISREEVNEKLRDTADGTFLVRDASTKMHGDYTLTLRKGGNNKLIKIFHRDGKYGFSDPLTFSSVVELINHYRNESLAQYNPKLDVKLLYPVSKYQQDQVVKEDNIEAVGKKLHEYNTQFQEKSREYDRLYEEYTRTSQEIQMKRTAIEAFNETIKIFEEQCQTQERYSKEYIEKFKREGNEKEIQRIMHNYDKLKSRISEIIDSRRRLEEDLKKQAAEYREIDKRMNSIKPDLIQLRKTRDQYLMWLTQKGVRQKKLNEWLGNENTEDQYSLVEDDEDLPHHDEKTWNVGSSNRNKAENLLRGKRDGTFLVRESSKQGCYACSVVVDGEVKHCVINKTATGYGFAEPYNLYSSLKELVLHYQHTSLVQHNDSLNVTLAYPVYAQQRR

| Structure (SMILES) | IC50 [1] | melting point | IC50 [2] |
| --- | --- | --- | --- |
| CS(=O)(=O)N1CCN(Cc2cc3nc(-c4cccc5nn(CCCCCCC(=O)NO)cc45)nc(N4CCOCC4)c3s2)CC1 [Compound 9, N-hydroxy-7-(4-(6-((4-(methylsulfonyl)piperazin-1-yl)methyl)-4-morpholinothieno[3,2-d]pyrimidin-2-yl)-2H-indazol-2-yl)heptanamide] | > 10 µM | 123 to 126 °C | < 0.1 µM |
| O=C(CCCCCCNCc1cc2nc(-c3cccc4[nH]ncc34)nc(N3CCOCC3)c2s1)NO [Compound 44, 7-((2-(1H-indazol-4-yl)-4-morpholinothieno[3,2-d]pyrimidin-6-yl)methylamino)-N-hydroxyheptanamide] | < 0.1 µM | 188 to 190 °C | 0.1 to 1 µM |
| O=C(NO)c1ccc(NCc2cc3nc(-c4cccc5[nH]ncc45)nc(N4CCOCC4)c3s2)nc1 [Compound 76, 6-((2-(1H-indazol-4-yl)-4-morpholinothieno[3,2-d]pyrimidin-6-yl)methylamino)-N-hydroxynicotinamide] | < 0.1 µM | 218 to 220 °C | < 0.1 µM |
| O=C(NO)c1ccc(NCc2cc3nc(-c4cccc5[nH]ncc45)nc(N4CCOCC4)c3s2)cc1 [Compound 78, 4-((2-(1H-indazol-4-yl)-4-morpholinothieno[3,2-d]pyrimidin-6-yl)methylamino)-N-hydroxybenzamide] | 0.1 to 1 µM | 180 to 183 °C | < 0.1 µM |
| O=C(/C=C/c1ccc(NCc2cc3nc(-c4cccc5[nH]ncc45)nc(N4CCOCC4)c3s2)cc1)NO [Compound 80, (E)-3-(4-((2-(1H-indazol-4-yl)-4-morpholinothieno[3,2-d]pyrimidin-6-yl)methylamino)phenyl)-N-hydroxyacrylamide] | < 0.1 µM | > 300 °C | 0.1 to 1 µM |
| CN(Cc1cc2nc(-c3cccc4[nH]ncc34)nc(N3CCOCC3)c2s1)c1ccc(/C=C/C(=O)NO)cc1 [Compound 81, (E)-3-(4-(((2-(1H-indazol-4-yl)-4-morpholinothieno[3,2-d]pyrimidin-6-yl)methyl)(methyl)amino)phenyl)-N-hydroxyacrylamide] | < 0.1 µM | 188 to 190 °C | 1 to 10 µM |
| CC(C)(C)CN(Cc1cc2nc(-c3cccc4[nH]ncc34)nc(N3CCOCC3)c2s1)c1ncc(C(=O)NO)cn1 [Compound 83, 2-(((2-(1H-indazol-4-yl)-4-morpholinothieno[3,2-d]pyrimidin-6-yl)methyl)(neopentyl)amino)-N-hydroxypyrimidine-5-carboxamide] | 0.1 to 1 µM | 240 to 242 °C | 1 to 10 µM |
| CCCN(Cc1cc2nc(-c3cccc4[nH]ncc34)nc(N3CCOCC3)c2s1)c1ncc(C(=O)NO)cn1 [Compound 84, 2-(((2-(1H-indazol-4-yl)-4-morpholinothieno[3,2-d]pyrimidin-6-yl)methyl)(propyl)amino)-N-hydroxypyrimidine-5-carboxamide] | < 0.1 µM | 224 to 226 °C | < 0.1 µM |
| CCCCN(Cc1cc2nc(-c3cccc4[nH]ncc34)nc(N3CCOCC3)c2s1)c1ncc(C(=O)NO)cn1 [Compound 85, 2-(((2-(1H-indazol-4-yl)-4-morpholinothieno[3,2-d]pyrimidin-6-yl)methyl)(butyl)amino)-N-hydroxypyrimidine-5-carboxamide] | 0.1 to 1 µM | 234 to 236 °C | < 0.1 µM |
| CC(C)CN(Cc1cc2nc(-c3cccc4[nH]ncc34)nc(N3CCOCC3)c2s1)c1ncc(C(=O)NO)cn1 [Compound 93, 2-(((2-(1H-indazol-4-yl)-4-morpholinothieno[3,2-d]pyrimidin-6-yl)methyl)(isobutyl)amino)-N-hydroxypyrimidine-5-carboxamide] | 0.1 to 1 µM | 196 to 198 °C | 0.1 to 1 µM |
| CN(CCCCCCC(=O)NO)Cc1cc2nc(-c3cccc4[nH]ncc34)nc(N3CCOCC3)c2s1 [Compound 104, 7-(((2-(1H-indazol-4-yl)-4-morpholinothieno[3,2-d]pyrimidin-6-yl)methyl)(methyl)amino)-N-hydroxyheptanamide] | < 0.1 µM | 131 to 133 °C | 0.1 to 1 µM |
| CC(=O)Nc1cccc(-c2nc(N3CCOCC3)c3sc(CN(C)c4ncc(C(=O)NO)cn4)cc3n2)c1 [Compound 107, 2-(((2-(3-acetamidophenyl)-4-morpholinothieno[3,2-d]pyrimidin-6-yl)methyl)(methyl)amino)-N-hydroxypyrimidine-5-carboxamide] | 1 to 10 µM | 183 to 185 °C | < 0.1 µM |
| CN(C)c1cccc(-c2nc(N3CCOCC3)c3sc(CN(C)c4ncc(C(=O)NO)cn4)cc3n2)c1 [Compound 108, 2-(((2-(3-(dimethylamino)phenyl)-4-morpholinothieno[3,2-d]pyrimidin-6-yl)methyl)(methyl)amino)-N-hydroxypyrimidine-5-carboxamide] | 1 to 10 µM | 172 to 175 °C | < 0.1 µM |
| CN(C)c1ccc(-c2nc(N3CCOCC3)c3sc(CN(C)c4ncc(C(=O)NO)cn4)cc3n2)cn1 [Compound 114, 2-(((2-(6-(dimethylamino)pyridin-3-yl)-4-morpholinothieno[3,2-d]pyrimidin-6-yl)methyl)(methyl)amino)-N-hydroxypyrimidine-5-carboxamide] | 0.1 to 1 µM | 190 to 195 °C | < 0.1 µM |

Next, values leading:

| IC50 [1] | melting point | IC50 [2] | Structure (SMILES) |
| --- | --- | --- | --- |
| 0.1 to 1 µM | 146 to 169 °C | 0.1 to 1 µM | CS(=O)(=O)N1CCN(Cc2cc3nc(-c4cccc5nn(CCCCC(=O)NO)cc45)nc(N4CCOCC4)c3s2)CC1 [Compound 7, N-hydroxy-5-(4-(6-((4-(methylsulfonyl)piperazin-1-yl)methyl)-4-morpholinothieno[3,2-d]pyrimidin-2-yl)-2H-indazol-2-yl)pentanamide] |
| > 10 µM | 124 to 125 °C | < 0.1 µM | CS(=O)(=O)N1CCN(Cc2cc3nc(-c4cccc5nn(CCCCCC(=O)NO)cc45)nc(N4CCOCC4)c3s2)CC1 [Compound 8, N-hydroxy-6-(4-(6-((4-(methylsulfonyl)piperazin-1-yl)methyl)-4-morpholinothieno[3,2-d]pyrimidin-2-yl)-2H-indazol-2-yl)hexanamide] |
| – | 125 to 127 °C | 1 to 10 µM | O=C(CCCCN1CCN(Cc2cc3nc(-c4cccc5[nH]ncc45)nc(N4CCOCC4)c3s2)CC1)NO [Compound 11, 5-(4-((2-(1H-indazol-4-yl)-4-morpholinothieno[3,2-d]pyrimidin-6-yl)methyl)piperazin-1-yl)-N-hydroxypentanamide] |
| < 0.1 µM | 123 to 124 °C | 0.1 to 1 µM | O=C(CCCCCN1CCN(Cc2cc3nc(-c4cccc5[nH]ncc45)nc(N4CCOCC4)c3s2)CC1)NO [Compound 12] |
| 0.1 to 1 µM | 119 to 122 °C | 0.1 to 1 µM | O=C(CCCCCCN1CCN(Cc2cc3nc(-c4cccc5[nH]ncc45)nc(N4CCOCC4)c3s2)CC1)NO [Compound 13, 7-(4-((2-(1H-indazol-4-yl)-4-morpholinothieno[3,2-d]pyrimidin-6-yl)methyl)piperazin-1-yl)-N-hydroxyheptanamide] |
| > 10 µM | 142 to 145 °C | 0.1 to 1 µM | CS(=O)(=O)N1CCN(Cc2cc3nc(-c4cccc5[nH]ncc45)nc(N4CCN(CCCCC(=O)NO)CC4)c3s2)CC1 [Compound 30, 5-(4-(2-(1H-indazol-4-yl)-6-((4-(methylsulfonyl)piperazin-1-yl)methyl)thieno[3,2-d]pyrimidin-4-yl)piperazin-1-yl)-N-hydroxypentanamide] |
| > 10 µM | 140 to 145 °C | 0.1 to 1 µM | CS(=O)(=O)N1CCN(Cc2cc3nc(-c4cccc5[nH]ncc45)nc(N4CCN(CCCCCC(=O)NO)CC4)c3s2)CC1 [Compound 31, 6-(4-(2-(1H-indazol-4-yl)-6-((4-(methylsulfonyl)piperazin-1-yl)methyl)thieno[3,2-d]pyrimidin-4-yl)piperazin-1-yl)-N-hydroxyhexanamide] |
| > 10 µM | 131 to 134 °C | 0.1 to 1 µM | CS(=O)(=O)N1CCN(Cc2cc3nc(-c4cccc5[nH]ncc45)nc(N4CCN(CCCCCCC(=O)NO)CC4)c3s2)CC1 [Compound 32, 7-(4-(2-(1H-indazol-4-yl)-6-((4-(methylsulfonyl)piperazin-1-yl)methyl)thieno[3,2-d]pyrimidin-4-yl)piperazin-1-yl)-N-hydroxyheptanamide] |
| 0.1 to 1 µM | 149 to 152 °C | < 0.1 µM | O=C(CCCNCc1cc2nc(-c3cccc4[nH]ncc34)nc(N3CCOCC3)c2s1)NO [Compound 41, 4-((2-(1H-indazol-4-yl)-4-morpholinothieno[3,2-d]pyrimidin-6-yl)methylamino)-N-hydroxybutanamide] |
| 1 to 10 µM | 145 to 147 °C | < 0.1 µM | O=C(CCCCNCc1cc2nc(-c3cccc4[nH]ncc34)nc(N3CCOCC3)c2s1)NO [Compound 42, 5-((2-(1H-indazol-4-yl)-4-morpholinothieno[3,2-d]pyrimidin-6-yl)methylamino)-N-hydroxypentanamide] |
| 0.1 to 1 µM | 115 to 118 °C | < 0.1 µM | CN(CCCCCC(=O)NO)Cc1cc2nc(-c3cccc4[nH]ncc34)nc(N3CCOCC3)c2s1 [Compound 103, 6-(((2-(1H-indazol-4-yl)-4-morpholinothieno[3,2-d]pyrimidin-6-yl)methyl)(methyl)amino)-N-hydroxyhexanamide] |
